Assay results published in patent publication US5110933A, “Salts of 3-azabicyclo[3.3.1]nonanes as antiarrhythmic agents, and precursors thereof” (Board of Regents of Oklahoma State University, priority 1990, dated 1992).

How the values were obtained:
[1] = test system: Sustained ventricular tachycardia induced by electrical pacing of infarcted dog heart; test: Antiarrhythmic activity on sustained ventricular tachycardia induced by electrical pacing of infarcted dog heart; type: in vivo; details: for ability to reduce the rate of the induced VT or to eliminate the same: 3 mg/kg as well as 6 mg/kg
Source text: To illustrate the useful biological properties of the compounds described in this invention, selected derivatives were screened for antiarrhythmic activity using dog models. The clinically used agent lidocaine and 7-benzyl-3-thia-7-azabicyclo[3.3.1]nonane hydroperchlorate (48) [U.S. Pat. No. 4,581,361] were employed as standards as basis for comparison. A small infarction was created in an area of the dog heart and thereafter electrical pacing was initiated to generate a sustained ventricular tachycardia (VT). This irregular beating pattern of the heart results in a reduction of the pumping capability of the heart in a manner now accepted as resembling symptoms observed in humans during a heart attack (see: Scherlag, B. J. et. al., Am. J. Cardiol. 1983, 51, 207; Bailey, B. R. et. al., J. Med. Chem. 1984, 27, 759; Thompson, M. D. et. al., J. Med. Chem. 1987, 30, 780; U.S. Pat. No. 4,581,361; and U.S. Pat. No. 4,778,892 for further details, said references incorporated herein for such purposes). The effects of the selected compounds in terms of ability to reduce the rate of the induced VT or to eliminate the same (abolish the VT completely or at least not allow it to be sustained) is then evaluated and compared to lidocaine or to 7-benzyl-3-thia-7-azabicyclo[3.3.1]nonane hydroperchlorate (48).

[2] = Tissue distribution of radioactivity after oral administration of (48)*; parameters: species or system rats; details: rat, in vivo
Source text: In order to determine the potential viability of members of the above family to act as useful antiarrhythmic agents in vivo, a pharmacokinetic and metabolism study was undertaken using a representative example from the above compounds. The techniques employed in these preliminary studies are well documented, but a summary of pharmacokinetic procedures can be found in: J. D. Baggot, "Principals of Drug Disposition in Domestic Animals: The Basis of Veterinary Clinical Pharmacology", W. B. Saunders Company, Philadelphia, 1977. These studies were conducted using ^14 C-labelled (48)* [Prepared by the method of Zisman, Berlin, et al. J. Labelled Compounds and Radiopharmaceuticals, In Press (1989)] in Sprague-Dawley rats.
Tissue distribution of (48)* was studied by measuring the radioactivity in selected organs collected from rats sacrificed at several time intervals after oral administration. […] These observations correlate well with the high volume of distribution calculated from pharmacokinetic data.

[3] = parameters: species or system rats; details: rat, in vivo, po

O=C1C2CC(CN(Cc3ccccc3)C2)CN1Cc1ccccc1 (stereo not drawn) [(17), 3,7-Dibenzyl-3,7-diazabicyclo[3.3.1]nonan-2-one]
Effect on SVT ([1]; 3mg/kg): Reduced | ability to reduce the rate of the induced VT or to eliminate the same [1]: reduced the rates of the induced VT but did not abolish them | Effect on SVT ([1]; 6mg/kg): Reduced

O=C(c1ccccc1)N1CC2CSCC(C2)C1 [(15)]
Effect on SVT ([1]; 3mg/kg): Reduced | ability to reduce the rate of the induced VT or to eliminate the same [1]: reduced the rates of the induced VT but did not abolish them | Effect on SVT ([1]; 6mg/kg): Reduced

CC(C)N1CC2CC(CN(C(=O)c3ccccc3)C2)C1 [(1), 3-Benzoyl-7-isopropyl-3,7-diazabicyclo[3.3.1]nonane Hydroperchlorate]
ability to reduce the rate of the induced VT or to eliminate the same [1]: extremely effective in eliminating the induced VT

COC1(OC)C2CSCC1CN(Cc1ccccc1)C2 [(11), 7-Benzyl-9,9-dimethoxy-3-thia-7-azabicyclo[3.3.1]-nonane Hydroperchlorate]
ability to reduce the rate of the induced VT or to eliminate the same [1]: extremely effective in eliminating the induced VT

COC1(OC)C2CN(Cc3ccccc3)CC1CN(Cc1ccccc1)C2 [(12), 3,7-Dibenzyl-9,9-dimethoxy-3,7-diazabicyclo[3.3.1]nonane Hydroperchlorate]
Effect on SVT ([1]; 3mg/kg): Reduced | ability to reduce the rate of the induced VT or to eliminate the same [1]: reduced the rates of the induced VT but did not abolish them | Effect on SVT ([1]; 6mg/kg): Reduced

CC(C)N1CC2CC(CN(Cc3ccccc3)C2)C1 [(5), 7-Benzyl-3-isopropyl-3,7-diazabicyclo[3.3.1]nonane Hydroperchlorate]
ability to reduce the rate of the induced VT or to eliminate the same [1]: extremely effective in eliminating the induced VT

c1ccc(CN2CC3CSCC(C3)C2)cc1 [(48)]
radioactivity in liver and kidney [2]: High levels of radioactivity | radioactivity in the heart [2]: Reasonably high concentrations of radioactivity | excretion in urine [3]: most of the dose was excreted in the form of metabolites

COc1ccc(C(=O)N2CC3CC(C2)CN(C(C)C)C3)cc1OC.[O-][Cl+3]([O-])([O-])O [(3), 3-(3',4'-Dimethoxybenzoyl)-7-isopropyl-3,7-diazabicyclo[3.3.1]nonane Hydroperchlorate]
ability to reduce the rate of the induced VT or to eliminate the same [1]: extremely effective in eliminating the induced VT

Ethyl 3-Benzyl-3-azabicyclo[3.3.1]nonane-7-(endo)-carboxylate Hydroperchlorate [(13)]
ability to reduce the rate of the induced VT or to eliminate the same [1]: extremely effective in eliminating the induced VT

[O-][S+]1CC2CC(CN(Cc3ccccc3)C2)C1 (stereo not drawn) [(10), 7-Benzyl-3-thia-7-azabicyclo[3.3.1]nonane 3-Oxide Hydroperchlorate]
Effect on SVT ([1]; 3mg/kg): Reduced rate of VT | ability to reduce the rate of the induced VT or to eliminate the same [1]: reduced the rates of the induced VT but did not abolish them | Effect on SVT ([1]; 6mg/kg): Reduced rate of VT

Ethyl 3-Benzyl-9,9-(1,3-dithiolan-2-yl)-3-azabicyclo[3.3.1]nonane-7-(endo)-carboxylate Hydroperchlorate [(14)]
ability to reduce the rate of the induced VT or to eliminate the same [1]: extremely effective in eliminating the induced VT

CC(C)N1CC2CSCC(C2)C1 [(8), 7-Isopropyl-3-thia-7-azabicyclo[3.3.1]nonane Hydroperchlorate]
Effect on SVT ([1]; 3mg/kg): No action | ability to reduce the rate of the induced VT or to eliminate the same [1]: exhibited little effect on the dog model | Effect on SVT ([1]; 6mg/kg): No action
